Experimental data as given in PubChem BioAssay (NCI).
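The compound was tested at five concentrations on cells cultured in 96-well plates, with a 48-hour exposure period. Abbreviation: GI50, concentration required for 50% inhibition of growth. TGI denotes the concentration required for complete inhibition of growth.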

How the values were obtained:
Test in all cases: growth of human tumour cells (NCI), 48 h
[1] = test system: A498 renal
[2] = test system: HCT-15 colon
[3] = test system: HL-60(TB) leukemia
[4] = test system: HS 578T breast
[5] = test system: MDA-MB-231 breast
[6] = test system: NCI-H226 lung
[7] = test system: NCI-H522 lung
[8] = test system: NCI/ADR-RES ovarian
[9] = test system: PC-3 prostate
[10] = test system: RXF 393 renal

SMILES | GI50 [1] [µM] | TGI [1] [µM] | GI50 [2] [µM] | TGI [2] [µM] | GI50 [3] [µM] | TGI [3] [µM] | GI50 [4] [µM] | TGI [4] [µM] | GI50 [5] [µM] | TGI [5] [µM] | GI50 [6] [µM] | TGI [6] [µM] | GI50 [7] [µM] | TGI [7] [µM] | GI50 [8] [µM] | TGI [8] [µM] | GI50 [9] [µM] | TGI [9] [µM] | GI50 [10] [µM] | TGI [10] [µM]
COc1ccccc1Nc1ncc(-c2ccccc2)o1 | > 25 | > 25 | > 25 | > 25 | > 25 | > 25 | > 5.12 | > 25 | > 25 | > 25 | > 25 | > 25 | > 25 | > 25 | > 25 | > 25 | > 25 | > 25 | > 25 | > 25
Cc1ccc2c(C3C(C#N)=C(N)Oc4cc5ccccc5cc43)cc(=O)oc2c1 (stereo not given) | 4.23 | 86.3 | 0.64 | > 100 | 0.424 | 17 | 3.29 | > 100 | 8.2 | > 100 | 62.1 | > 100 | 0.446 | 11.6 | 0.833 | > 100 | 1.25 | > 100 | 0.671 | 6.11
CCN(Cc1ccc(F)cc1)c1ccc(CO)c(Br)c1 | 0.0272 | 0.136 | 5.8 | > 52.6 | 3.26 | 26.4 | 13.5 | 46.1 | 14.2 | 36.5 | 0.0987 | 0.231 | 13.8 | 30.2 | 13.4 | 46.8 | 12.8 | 36.2 | 1.4 | 16.1
CN1CC[C@@H](c2c(O)cc(O)c3c(=O)cc(-c4ccc(C(F)(F)F)cc4Cl)oc23)[C@@H]1CO | 14.2 | 27.6 | 20.9 | 78.2 | 8.37 | 33.6 | 11.8 | 33.6 | 12.7 | 34.3 | 10.5 | 77.2 | 17.4 | 37.3 | 19.1 | 51.6 | 19 | 44.5 | 10.9 | 24.8
